Reference: US6486161B1, “Use of rifamycin derivative for treating mastitis in a domestic animal” (priority 2000, dated 2002)

Assays:
[1] = system: Staphylococcus aureus B83-1 strain (derived from Newbould 305); experiment: Therapeutic test in bovine mammary glands with experimental mastitis; type: in vivo, Holstein dairy cow
Experimental: As the rifamycin derivative (1), a compound A wherein R is methyl group, i. e. R≡ CH3, was examined for its therapeutic effect on bovine mastitis as follows.
The therapeutic test for infection in bovine mammary glands was carried out by inoculating […] of Staphylococcus [Staphylococcus aureus B83-1 strain (derived from Newbould 305)] into one mammary gland of a Holstein dairy cow (2-5 years old) to cause experimental mastitis.
To one mammary gland of each cow in a treated group, the compound A used in the present invention was administered (infused through the lactiferous duct) in an amount of 50 mg in 10 ml of benzyl alcohol per day successively for two days, twenty-one days after the infection. To one mammary gland of each cow in a control group, benzyl alcohol was administered in an amount of 10 ml per day in the same manner as in the treated group. The therapeutic effect of the compound A was examined by counting colony forming units (CFUs) of Staphylococcus in 1 ml of milk obtained from a cow subjected to the test. Comparing the above two groups, the therapeutic effect of the compound A on bovine mastitis was evaluated.
Staphylococcus was inoculated into forty-four mammary glands of eleven cows. Twenty-one days later, the number of mammary glands wherein Staphylococcus was separated from milk, i.e. number of mammary glands with mastitis, was counted. […]

[2] = system: rifampin-resistant S. aureus isolated from diseased animals; type: cell-based, Staphylococcus aureus; settings: range over the 13 rifampin-resistant strains
Experimental: The antibacterial effect of the rifamycin derivative (1) against rifampin-resistant Staphylococcus aureus bacterial strains was determined. The tested bacterial strains were isolated from a variety of animal diseases as well as laboratory strains.
All bacteria were maintained on 3 mm glass beads immersed in trypticase soy broth (BBL Microbiology Systems, Cockeysville, Md.) with 10% glycerol and held at −70° C. until revived. Prior to testing, the organisms were subcultured on tryptose blood agar base (Difco, Detroit, Mich.) supplemented with 5% sheep blood for 24 hours at 35° C.
The compounds were dissolved in 95% ethanol and diluted to 10% ethanol in sterile, distilled water except for the compounds used in the in vivo testing where saline was used to dilute the original ethanol/drug suspension. Further dilutions were conducted in water or saline.
MICs were determined using the microbroth dilution method. In addition to the test organisms, the following quality control strain also was tested: Staphylococcus aureus ATCC 29213. The results are shown in Table 5, wherein R is the alkyl group R in the rifamycin derivative (1).

In the case of COC1/C=C/OC2(C)Oc3c(C)c(O)c4c(=O)c(c5oc6cc(N7CCN(C)CC7)cc(O)c6nc-5c4c3C2=O)NC(=O)/C(C)=C\C=C\C(C)C(O)C(C)C(O)C(C)C(OC(C)=O)C1C (stereo not drawn) [R = methyl], the curing ratio ([1]; cow, 50 mg per day for two days infused through the lactiferous duct, twenty-one days after infection) was 64%, the “mammary glands negative (at most ten CFU per ml milk) in all the examined days” value ([1]; of twenty-two treated mammary glands, 50 mg in 10 ml benzyl alcohol per day for two days via lactiferous duct, 7-28 days after administration) was “fourteen” and the “MIC Range” value [2] was 0.06 to 4.0 µg/mL.
